Measured values reported in patent publication US20100267561A1, “HERBICIDAL PYRIDAZINONE DERIVATIVES” (priority 2007, published 2010).
Read-outs that look alike come from different tables or passages of the source.

How the values were obtained:
Format in all cases: in vivo
[1] = tested on: green foxtail (Setaria viridis); assay: Test B pre-/postemergence plant response; details: Setaria viridis, pre-emergence, Preemergence, scale 0 to 100, read-out: Plant response rating, Foxtail, Green
From the text: (§1) Seeds of plant species selected from blackgrass (Alopecurus myosuroides), downy bromegrass (Bromus tectorum), green foxtail (Setaria viridis), Italian ryegrass (Lolium multiflorum), wheat (Triticum aestivum), wild oat (Avena fatua), catchweed bedstraw (Galium aparine), bermudagrass (Cynodon dactylon), surinam grass (Brachiaria decumbens), cocklebur (Xanthium strumarium), corn (Zea mays), large crabgrass (Digitaria sanguinalis), woolly cupgrass (Eriochloa villosa), giant foxtail (Setaria faberii), goosegrass (Eleusine indica), johnsongrass (Sorghum halepense), kochia (Kochia scoparia), lambsquarters (Chenopodium album), morningglory (Ipomoea coccinea), eastern black (E.B.) nightshade (Solanum ptycanthum), yellow nutsedge (Cyperus esculentus), pigweed (Amaranthus retroflexus), common ragweed (Ambrosia elation), Russian thistle (Salsola iberica), soybean (Glycine max), common (oilseed) sunflower (Helianthus annuus), and velvetleaf (Abutilon theophrasti) were planted and treated preemergence with test chemicals formulated in a non-phytotoxic solvent mixture which included a surfactant.
(§2) At the same time, plants selected from these crop and weed species and also winter barley (Hordeum vulgare), canarygrass (Phalaris minor), chickweed (Stellaria media) and windgrass (Apera spica-venti) were treated with postemergence applications of some of the test chemicals formulated in the same manner. Plants ranged in height from 2 to 18 cm (1- to 4-leaf stage) for postemergence treatments.
(§3) Plant species in the flooded paddy test consisted of rice (Oryza sativa), umbrella sedge (Cyperus difformis), ducksalad (Heteranthera limosa) and barnyardgrass (Echinochloa crus-galli) grown to the 2-leaf stage for testing. At time of treatment, test pots were flooded to 3 cm above the soil surface, treated by application of test compounds directly to the paddy water, and then maintained at that water depth for the duration of the test. Treated plants and controls were maintained in a greenhouse for 13 to 15 days, after which time all species were compared to controls and visually evaluated. Plant response ratings, summarized in Table B, are based on a scale of 0 to 100 where 0 is no effect and 100 is complete control. A dash (-) response means no test result.

corn (Zea mays) = assay: Test B pre-/postemergence plant response; details: Zea mays; for Corn plant response rating (crop injury, 0 = no effect, 100 = complete kill) at 16 g/ha: 16 g ai/ha; for Corn plant response rating (crop injury, 0 = no effect, 100 = complete kill) at 31 g/ha: 31 g ai/ha, 100 complete control; for Corn plant response rating (crop injury, 0 = no effect, 100 = complete kill) at 62 g/ha: 62 g ai/ha; for Corn plant response rating (crop injury, 0 = no effect, 100 = complete kill) at 125 g/ha: 125 g ai/ha
From the text: as §1, §2, §3

[2] = tested on: downy bromegrass (Bromus tectorum); assay: Test B pre-/postemergence plant response; details: Bromus tectorum, read-out: Plant response rating, Bromegrass, Downy; for pest or weed control at 16 g/ha: 16 g ai/ha; for pest or weed control at 31 g/ha: 31 g ai/ha, 100 complete control; for pest or weed control at 62 g/ha: 62 g ai/ha; for pest or weed control at 125 g/ha: 125 g ai/ha
From the text: as §1, §2, §3

[3] = tested on: common (oilseed) sunflower (Helianthus annuus); assay: Test B pre-/postemergence plant response; details: Helianthus annuus, pre-emergence, Preemergence, read-out: Plant response rating, Sunflower
From the text: as §1, §2, §3

[4] = tested on: surinam grass (Brachiaria decumbens); assay: Test B pre-/postemergence plant response; details: Urochloa decumbens, read-out: Plant response rating, Surinam Grass; for pest or weed control at 16 g/ha: 16 g ai/ha; for pest or weed control at 31 g/ha: 31 g ai/ha, 100 complete control; for pest or weed control at 62 g/ha: 62 g ai/ha; for pest or weed control at 125 g/ha: 125 g ai/ha
From the text: as §1, §2, §3

[5] = tested on: umbrella sedge (Cyperus difformis); assay: Test B flooded paddy test plant response; details: Cyperus difformis, read-out: Plant response rating, Sedge, Umbrella
Outline: (§4)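 Step one: raise plants to 2 leaves. Step two: flood pots 3 cm over the soil and apply compound into the water, keeping this depth. Step three: after 13–15 greenhouse days, score visually versus controls, 0–100, where 100 means complete control.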

[6] = tested on: barnyardgrass (Echinochloa crus-galli); assay: Test B flooded paddy test plant response; details: Echinochloa crus-galli, read-out: Plant response rating, Barnyardgrass
Outline: as §4

[7] = tested on: ducksalad (Heteranthera limosa); assay: Test B flooded paddy test plant response; details: Heteranthera limosa, read-out: Plant response rating, Ducksalad
Outline: as §4

rice (Oryza sativa) = assay: Test B flooded paddy test plant response; details: Oryza sativa, read-out: Plant response rating, Rice
Outline: as §4

[8] = post-emergence, Postemergence, scale 0 to 100
[9] = post-emergence, Postemergence, scale 0 to 100, 0 no effect
[10] = pre-emergence, Preemergence, scale 0 to 100 (0 no effect, 100 complete control)
[11] = pre-emergence, Preemergence, 0 to 100 scale, 0 no effect
[12] = pre-emergence, Preemergence, scale 0 to 100
[13] = Flood (flooded paddy test), 62 g ai/ha, scale 0 to 100, 0 no effect, 100 complete control
[14] = Flood (flooded paddy test), 125 g ai/ha, scale 0 to 100, 0 no effect, 100 complete control
[15] = Flood (flooded paddy test), 250 g ai/ha, scale 0 to 100, 0 no effect, 100 complete control
[16] = Flood, 31 g ai/ha, scale 0 to 100

CCc1cc(-c2ccc(C(F)(F)F)cc2)nn1-c1c(O)cnn(C)c1=O [Compound 11, 4-[5-ethyl-3-[4-(trifluoromethyl)phenyl]-1H-pyrazol-1-yl]-5-hydroxy-2-methyl-3(2H)-pyridazinone]
pest or weed control at 62 g/ha ([1]; 62 g ai/ha): 100% | pest or weed control at 125 g/ha ([1]; 125 g ai/ha): 100% | Corn plant response rating (crop injury, 0 = no effect, 100 = complete kill) at 16 g/ha (corn (Zea mays); [8]): 100% | Corn plant response rating (crop injury, 0 = no effect, 100 = complete kill) at 31 g/ha (corn (Zea mays); [9]): 100% | Corn plant response rating (crop injury, 0 = no effect, 100 = complete kill) at 62 g/ha (corn (Zea mays); [8]): 100% | Corn plant response rating (crop injury, 0 = no effect, 100 = complete kill) at 125 g/ha (corn (Zea mays); [8]): 100% | Corn plant response rating (crop injury, 0 = no effect, 100 = complete kill) at 16 g/ha (corn (Zea mays); [10]): 70% | Corn plant response rating (crop injury, 0 = no effect, 100 = complete kill) at 31 g/ha (corn (Zea mays); [11]): 85% | Corn plant response rating (crop injury, 0 = no effect, 100 = complete kill) at 62 g/ha (corn (Zea mays); [12]): 95% | Corn plant response rating (crop injury, 0 = no effect, 100 = complete kill) at 125 g/ha (corn (Zea mays); [12]): 100% | pest or weed control at 16 g/ha [2, 8]: 85% | pest or weed control at 31 g/ha [2, 9]: 90% | pest or weed control at 62 g/ha [2, 8]: 98% | pest or weed control at 125 g/ha [2, 8]: 100% | pest or weed control at 16 g/ha [2, 10]: 50% | pest or weed control at 31 g/ha [2, 11]: 95% | pest or weed control at 62 g/ha [2, 12]: 98% | pest or weed control at 125 g/ha [2, 12]: 100% | pest or weed control at 16 g/ha ([3]; 16 g ai/ha, scale 0 to 100 (0 no effect, 100 complete control)): 0% | pest or weed control at 31 g/ha ([3]; 31 g ai/ha, 0 to 100 scale, 0 no effect, 100 complete control): 0% | pest or weed control at 62 g/ha ([3]; 62 g ai/ha, scale 0 to 100): 0% | pest or weed control at 125 g/ha ([3]; 125 g ai/ha, scale 0 to 100): 0% | pest or weed control at 16 g/ha [4, 8]: 100% | pest or weed control at 31 g/ha [4, 9]: 100% | pest or weed control at 62 g/ha [4, 8]: 100% | pest or weed control at 125 g/ha [4, 8]: 100% | pest or weed control at 16 g/ha [4, 10]: 100% | pest or weed control at 31 g/ha [4, 11]: 100% | pest or weed control at 62 g/ha [4, 12]: 100% | pest or weed control at 125 g/ha [4, 12]: 100% | pest or weed control at 62 g/ha [5, 13]: 30% | pest or weed control at 125 g/ha [5, 14]: 40% | pest or weed control at 250 g/ha [5, 15]: 40% | pest or weed control at 31 g/ha [5, 16]: 30% | pest or weed control at 62 g/ha [6, 13]: 50% | pest or weed control at 125 g/ha [6, 14]: 65% | pest or weed control at 250 g/ha [6, 15]: 75% | pest or weed control at 31 g/ha [6, 16]: 40% | pest or weed control at 62 g/ha [7, 13]: 0% | pest or weed control at 125 g/ha [7, 14]: 0% | pest or weed control at 250 g/ha [7, 15]: 40% | pest or weed control at 31 g/ha [7, 16]: 0% | plant injury at 62 g/ha (rice (Oryza sativa); [13]): 30% | plant injury at 125 g/ha (rice (Oryza sativa); [14]): 60% | plant injury at 250 g/ha (rice (Oryza sativa); [15]): 70% | plant injury at 31 g/ha (rice (Oryza sativa); [16]): 0%
